Experimental data: US20260055369A1, “METHOD FOR GENERATING CELLS OF THE T CELL LINEAGE WITH ENGINEERING BROADLY REACTIVE HUMAN NOTCH LIGAND” (H. Lee Moffitt Cancer Center and Research Institute, Inc., priority 2022, published 2026)

Assays:
[1] = tested on: Notch1; test: Notch inhibition assay with soluble antagonists and WT DLL4 coated plates (CHO-K1 N1-Gal4); type: cell-based; details: comparison with DAPT and BB-94, plates coated with 50 nM WT DLL4; FIG. 4B; read-out: IC50 for inhibition of Notch1 activation
Description: For CHO-K1 N1-Gal4 reporter cells, on day one, biotinylated WT DLL4 was pre-coated in 96-well plates at 50 nM following the same protocol described above. Next, CHO-K1 N1-Gal4 cells were detached with trypsin-EDTA, washed, and diluted at 200,000 cells/mL in α-MEM media. Ten-fold serial dilutions of non-biotinylated DLL4 ligands (N-EGF5) were prepared in DPBS starting at 600 nM. Next, soluble inhibitors were mixed in ratio 1:1 with CHO-K1 N1-Gal4 200,000 cells/mL stocks for 15 min at room temperature to pre-block Notch receptors. Two hundred microliters of inhibition reactions containing 20,000 reporter cells were added to WT DLL4-coated wells, and plates incubated for 24 hours at 37° C. and 5% CO2. When DAPT (gamma-secretase inhibitor, Sigma) and BB-94 (ADAM metalloprotease inhibitor, Sigma) were used, stock solutions were prepared at 100 μM in 8% DMSO. Appropriate DMSO controls were included to test Notch activation and cell viability. Final DMSO concentration in the experiment was kept below 1%. […] On day two, assay plates were washed with 200 μL of DPBS, CHO-K1 N1-Gal4 cells detached with trypsin-EDTA, quenched with 200 μL of α-MEM media, and Notch activation measured by flow cytometry (BD Accuri C6 Plus). […]

[2] = tested on: Notch1; test: Notch inhibition assay in co-culture format (CHO-K1 N1-Gal4 with HEK293T expressing WT DLL4); type: cell-based; details: co-culture 1:1 with HEK293T expressing WT DLL4; read-out: IC50 for inhibition of Notch1 activation by cellular DLL4
Description: For inhibition of CHO-K1 N1-Gal4 cells with DAPT and Delta^MAX, the experiment was set-up following the protocol described above with the exception that CHO-K1 N1-Gal4 reporters were incubated with HEK293T-expressing WT DLL4 for Notch activation. Three-fold serial dilutions of soluble Delta^MAX and DAPT were prepared in DPBS starting at 6,000 nM. For DAPT, a stock solution of 100 μM in 8% DMSO was prepared before serial dilutions in DPBS. Appropriate DMSO controls were also assayed for cytotoxicity. Final DMSO concentration in the wells was maintained below 1%. Thirty thousand signal senders and pre-blocked signal receivers (100 μL each) were incubated for 24 hours at 37° C. and 5% CO2 before analysis by flow cytometry. Maximum Notch activation (100%) was set in the absence of soluble inhibitors and normalized to wells containing CHO-K1 N1-Gal4 cells and HEK293T lacking expression of WT DLL4. Mean fluorescence intensity is represented as percentage relative to Notch activation in the absence of inhibitors±s.d. of three independent biological replicates.

Structure (SMILES)	IC50 [1]	IC50 [2]
CNC(=O)[C@H](Cc1ccccc1)NC(=O)[C@H](CC(C)C)[C@H](CSc1cccs1)C(=O)NO [BB-94, reference compound]	1000 nM	
C[C@H](NC(=O)Cc1cc(F)cc(F)c1)C(=O)N[C@H](C(=O)OC(C)(C)C)c1ccccc1 [DAPT, reference compound]	40 nM	100 nM
